{"source": "patent US9717253B2", "about": "“Synergistic Bacillus thuringiensis subsp. aizawai and chlorantraniliprole mixtures for diamondback moth, beet armyworm, soybean looper, corn earworm, cabbage looper, and southwestern corn borer control” (priority 2015, dated 2017)", "key": {"beet armyworm larvae": {"system": "beet armyworm larvae", "assay": "Leaf dip test, beet armyworm larvae", "type": "in vivo", "settings": "Spodoptera exigua, foliar, Bta 2.7 ppm, chlorantraniliprole 0.0009 ppm, mixture 2.7 ppm + 0.0009 ppm, read-out: % Efficacy", "method": "(§1) For these tests, standardized laboratory leaf dip methods were used to inoculate plant material with treatment(s). Dry, treated leaves were placed into Petri dishes (100×25 mm) containing filter paper wetted with 500 μl of distilled H2O (“dH2O”). Each dish was then infested with between 5 and 10 larvae, dependent on species. Efficacy ratings were taken at specified intervals. Synergy ratings were calculated for each test.\n(§2) % Cexp=A+B−(AB/100), where % Cexp is the expected efficacy and “in which A and B are the control levels given by the single [insecticides]. If the ratio between the experimentally observed efficacy of the mixture Cobs and the expected efficacy of the mixture is greater than 1, synergistic interactions are present in the mixture.” (Gisi, Synergisitic Interaction of Fungicides in Mixtures, The American Phytopathological Society, 86:11, 1273-1279, 1996). Adopting a conservative approach, Applicant determined synergy to be present at ratios of ≧1.15.\nIn this study, the response of beet armyworm larvae to amounts of Bacillus thuringiensis subsp. aizawai and chlorantraniliprole was observed.\n(§3) Bacillus thuringiensis subsp. aizawai was applied at a concentration of 2.7 ppm (2.7 μg/ml). Chlorantraniliprole was applied at a concentration of 0.0009 ppm (0.0009 μg/ml). […]"}, "[1]": {"system": "southwestern corn borer larvae", "assay": "Leaf dip test, southwestern corn borer larvae", "type": "in vivo, Diatraea grandiosella", "settings": "foliar, Bta 2.7 ppm, chlorantraniliprole 0.0009 ppm, mixture 2.7 ppm + 0.0009 ppm, read-out: % Efficacy", "method": "as §1, §2\nIn this study, the response of southwestern corn borer larvae to amounts of Bacillus thuringiensis subsp. aizawai and chlorantraniliprole was observed.\nas §3"}, "diamondback moth larvae": {"system": "diamondback moth larvae", "assay": "Leaf dip test, diamondback moth larvae", "type": "in vivo", "settings": "Plutella xylostella, foliar, Bta 2.7 ppm, chlorantraniliprole 0.0009 ppm, mixture 2.7 ppm + 0.0009 ppm, read-out: % Efficacy", "method": "as §1\nIn this study, the response of diamondback moth larvae to synergistic amounts of Bacillus thuringiensis subsp. aizawai (“Bta”) and chlorantraniliprole was observed.\nas §2, §3"}, "soybean looper larvae": {"system": "soybean looper larvae", "assay": "Leaf dip test, soybean looper larvae", "type": "in vivo, Chrysodeixis includens", "settings": "foliar, Bta 27 ppm, chlorantraniliprole 0.0009 ppm, mixture 27 ppm + 0.0009 ppm, read-out: % Efficacy", "method": "as §1, §2\nIn this study, the response of soybean looper larvae to amounts of Bacillus thuringiensis subsp. aizawai and chlorantraniliprole was observed.\n(§4) Bacillus thuringiensis subsp. aizawai was applied at a concentration of 27 ppm (27 μg/ml). Chlorantraniliprole was applied at a concentration of 0.0009 ppm (0.0009 μg/ml). […]"}, "corn earworm larvae": {"system": "corn earworm larvae", "assay": "Leaf dip test, corn earworm larvae", "type": "in vivo", "settings": "Helicoverpa zea, foliar, Bta 27 ppm, chlorantraniliprole 0.0009 ppm, mixture 27 ppm + 0.0009 ppm, read-out: % Efficacy", "method": "as §1, §2\nIn this study, the response of corn earworm larvae to amounts of Bacillus thuringiensis subsp. aizawai and chlorantraniliprole was observed.\nas §4"}, "cabbage looper larvae": {"system": "cabbage looper larvae", "assay": "Leaf dip test, cabbage looper larvae", "type": "in vivo", "settings": "Trichoplusia ni, foliar, Bta 2.7 ppm, chlorantraniliprole 0.0009 ppm, mixture 2.7 ppm + 0.0009 ppm, read-out: % Efficacy", "method": "as §1, §2\nIn this study, the response of cabbage looper larvae to amounts of Bacillus thuringiensis subsp. aizawai and chlorantraniliprole was observed.\nas §3"}, "sugarcane borer larvae": {"system": "sugarcane borer larvae", "assay": "Leaf dip test, sugarcane borer larvae", "type": "in vivo", "settings": "foliar, Bta 27 ppm, chlorantraniliprole 0.0009 ppm, mixture 27 ppm + 0.0009 ppm, read-out: % Efficacy", "method": "as §1, §2\nIn this study, the response of sugarcane borer larvae to amounts of Bacillus thuringiensis subsp. aizawai and chlorantraniliprole was observed.\nas §4"}}, "note": "Like-named read-outs stand apart in the source and are kept apart here.", "data": [{"smiles": "CNC(=O)c1cc(Cl)cc(C)c1NC(=O)c1cc(Br)nn1-c1ncccc1Cl", "note": "[Chlorantraniliprole, chlorantraniliprole]", "values": [{"measurement": "Emax at 0.0009 ppm", "setting": "beet armyworm larvae; 24 h after treatment", "value": 10, "unit": "%"}, {"measurement": "Emax at 0.0009 ppm", "setting": "beet armyworm larvae; 48 h after treatment", "value": 13, "unit": "%"}, {"measurement": "Emax at 0.0009 ppm", "setting": "[1]; 24 h after treatment", "value": 3, "unit": "%"}, {"measurement": "Emax at 0.0009 ppm", "setting": "[1]; 48 h after treatment", "value": 7, "unit": "%"}, {"measurement": "Emax at 0.0009 ppm", "setting": "diamondback moth larvae; 24 h after treatment", "value": 7, "unit": "%"}, {"measurement": "Emax at 0.0009 ppm", "setting": "diamondback moth larvae; 48 h after treatment", "value": 7, "unit": "%"}, {"measurement": "Emax at 0.0009 ppm", "setting": "soybean looper larvae; 24 h after treatment", "value": 10, "unit": "%"}, {"measurement": "Emax at 0.0009 ppm", "setting": "soybean looper larvae; 48 h after treatment", "value": 13, "unit": "%"}, {"measurement": "Emax at 0.0009 ppm", "setting": "corn earworm larvae; 24 h after treatment", "value": 10, "unit": "%"}, {"measurement": "Emax at 0.0009 ppm", "setting": "corn earworm larvae; 48 h after treatment", "value": 7, "unit": "%"}, {"measurement": "Emax at 0.0009 ppm", "setting": "cabbage looper larvae; 24 h after treatment", "value": 7, "unit": "%"}, {"measurement": "Emax at 0.0009 ppm", "setting": "cabbage looper larvae; 48 h after treatment", "value": 10, "unit": "%"}, {"measurement": "Emax at 0.0009 ppm", "setting": "sugarcane borer larvae; 24 h after treatment", "value": 6, "unit": "%"}, {"measurement": "Emax at 0.0009 ppm", "setting": "sugarcane borer larvae; 48 h after treatment", "value": 12, "unit": "%"}]}]}
